# Experimental data taken from US7825127B2, “Method for treating cancer” (Takeda Pharmaceutical Company, Limited, priority 2006, dated 2010).
# How the values were obtained:
# Test in all cases: Sulforhodamine B cell growth inhibitory assay
# Type in all cases: cell-based
# MCF-7 = MCF-7 (FIG. 2C), 3 days
# Protocol: (§1) Sulforhodamine B staining method was used for cell growth inhibitory assay. Each cell was plated on a 96 well plate (Nunc). The next day, compound X was serially diluted and added thereto. The cell lines used and the terms of incubation of the compound are indicated separately. To immobilize the cells, 25% glutaraldehyde solution (Wako, 50 μL) was added to the culture medium (200 μL) and the mixture was left standing at room temperature for 15 min.
# (§2) The plate was then washed once with PBS (Invitrogen), 200 μL of PBS was added, 25 μL of 50% trichloroacetic acid (Wako) was added, and the mixture was left standing at 4° C. for 1 hr or longer. The plate was washed 5 times with tap water, redundant water was removed by slamming the plate against paper towels. A 1% (W/W) acetic acid solution (50 μL) containing 0.4% (w/v) Sulforhodamine B (SRB, Sigma) was added to each well and, 15 min later, the plate was washed 3 times with 1% acetic acid solution. The plate was thoroughly dried, 10 mM Tris solution was added, and the mixture was stirred well in a plate shaker, and the absorbance at 550 nm was measured (Bio-Rad, Benchmark Plus).
# BT-474 = BT-474 (FIG. 2A), 5 days
# Protocol: as §1, §2
# SK-BR-3 = SK-BR-3 (FIG. 2B), 5 days
# Protocol: as §1, §2
compound,measurement,setting,value
"CC(C)(O)CC(=O)NCCn1ccc2ncnc(Nc3ccc(Oc4cccc(C(F)(F)F)c4)c(Cl)c3)c21 [compound X, N-{2-[4-({3-chloro-4-[3-(trifluoromethyl)phenoxy]phenyl}amino)-5H-pyrrolo[3,2-d]pyrimidin-5-yl]ethyl}-3-hydroxy-3-methylbutanamide]",sensitivity of cells to growth inhibition,MCF-7,low-sensitive
same,sensitivity of cells to growth inhibition,BT-474,high-sensitive
same,sensitivity of cells to growth inhibition,SK-BR-3,high-sensitive
